The results in this text go back to ChEMBL document CHEMBL1140149, “Discovery of bioavailable 4,4-disubstituted piperidines as potent ligands of the chemokine receptor 5 and inhibitors of the human immunodeficiency virus-1” (J Med Chem, 2008).

The structures appear in SMILES notation.

Sequence of C-C chemokine receptor type 5 (P51681 whole entry): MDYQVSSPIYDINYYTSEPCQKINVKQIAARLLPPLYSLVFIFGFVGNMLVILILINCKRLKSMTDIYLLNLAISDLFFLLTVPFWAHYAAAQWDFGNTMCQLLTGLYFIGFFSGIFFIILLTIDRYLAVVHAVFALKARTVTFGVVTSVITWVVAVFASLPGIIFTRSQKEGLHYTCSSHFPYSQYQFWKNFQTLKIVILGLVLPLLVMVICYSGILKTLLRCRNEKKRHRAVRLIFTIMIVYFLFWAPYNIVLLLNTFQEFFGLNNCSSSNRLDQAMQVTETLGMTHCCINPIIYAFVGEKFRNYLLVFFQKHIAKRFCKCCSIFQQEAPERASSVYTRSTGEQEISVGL

The first data set addresses C-C chemokine receptor type 5 (Homo sapiens, UniProt P51681). The data set is described as follows: Displacement of [125I]MIP-1beta from human CCR5 expressed in CHO cells. Format: cell-based.
Details: not given
On to `Cc1nc2ccccc2n1[C@H]1C[C@H]2CC[C@@H](C1)N2CCC1(c2ccc(Cl)c(Cl)c2)CCN(C(=O)C(C)(C)C)CC1`, for which the 50% inhibitory concentration (IC50) is 7.24 nM. That is a single-digit nanomolar value.
Still for that read-out and setting: the same measure for `CC(C)(C)OC(=O)N1CCC(CCCN2CCC3(CC2)C(=O)NCN3c2ccccc2)(c2ccccc2)CC1`: 8510 nM.
With `O=C(c1ccccc1)N1CCCC(CCCN2CCC(n3c(=O)[nH]c4ccccc43)CC2)(c2ccc(Cl)c(Cl)c2)C1` (stereo not given), the IC50 is 1580 nM. Against the preceding compound, the IC50 is about 5.4-fold lower.
Take `Cc1nc2ccccc2n1[C@H]1C[C@H]2CC[C@@H](C1)N2CCCC1(c2ccccc2)CCN(C(=O)OC(C)(C)C)CC1`: the IC50 is > 31600 nM.
`Cc1nc2ccccc2n1[C@@H]1C[C@H]2CC[C@@H](C1)N2CCCC1(c2ccccc2)CCN(C(=O)c2ccco2)CC1` showed an IC50 of 5010 nM.
Consider `O=C(c1ccco1)N1CCC(CCCN2CCC3(CC2)C(=O)NCN3C2CCCCC2)(c2ccc(Cl)c(Cl)c2)C1` (stereo not given), for which the IC50 was > 31600 nM.
In turn, `O=C1CCC(CCCN2CCC3(CC2)C(=O)NCN3c2ccccc2)(c2ccc(Cl)c(Cl)c2)CN1Cc1ccccc1` (stereo not given) showed an IC50 of 1000 nM.
Compound `Cc1nc2ccccc2n1[C@@H]1C[C@H]2CC[C@@H](C1)N2CCC1(c2ccccc2)CCN(C(=O)OCc2ccccc2)CC1` had an IC50 of 63.1 nM.
For `O=C(C1CCCC1)N1CCC(OCCN2CCC3(CC2)C(=O)NCN3c2ccccc2)(c2ccc(Cl)c(Cl)c2)C1` (stereo not given), the IC50 is 4790 nM.
Regarding `O=C1NCN(c2ccccc2)C12CCN(CCCC1(c3ccc(Cl)c(Cl)c3)CCN(Cc3ccco3)C1)CC2` (stereo not given), the IC50 was 5250 nM.
As for `O=C(c1ccco1)N1CCC(OCCN2CCC3(CC2)C(=O)NCN3c2ccccc2)(c2ccc(Cl)c(Cl)c2)CC1`, the half-maximal inhibitory concentration (IC50) was 3470 nM.
The compound `O=C(c1ccco1)N1CCC(CCN2CCC3(CC2)C(=O)NCN3c2ccccc2)(c2ccc(Cl)c(Cl)c2)C1` (stereo not given) showed an IC50 of 1480 nM.
Compound `O=C(c1ccco1)N1CCC(CCN2CCC3(CC2)C(=O)NCN3c2ccccc2)(c2ccccc2)C1` (stereo not given) gave an IC50 of 9330 nM.
As to `O=C(c1ccco1)N1CCC(CCCN2CCC3(CC2)C(=O)NC(=O)N3c2ccccc2)(c2ccc(Cl)c(Cl)c2)C1` (stereo not given), the IC50 was > 31600 nM.
The compound `O=C1CCC(CCCN2CCC(n3c(=O)[nH]c4ccccc43)CC2)(c2ccc(Cl)c(Cl)c2)CN1Cc1ccccc1` (stereo not given) gave an IC50 of 20000 nM.
Regarding `Cc1nc2ccccc2n1C1CC2COCC(C1)N2CCC1(c2ccccc2)CCN(C(=O)c2ccccc2)CC1` (stereo not given), the half-inhibitory concentration (IC50) is > 3160 nM.
On the same count and under the same terms, the value for `O=C1NCN(c2ccccc2)C12CCN(CCOC1(c3ccc(Cl)c(Cl)c3)CCN(S(=O)(=O)c3ccccc3)CC1)CC2` was 2400 nM.
Compound `CN1CN(c2ccccc2)C2(CCN(CCCC3(c4ccc(Cl)c(Cl)c4)CCN(C(=O)c4ccco4)C3)CC2)C1=O` (stereo not given) showed an IC50 of 7080 nM.
`Cc1nc2ccccc2n1[C@@H]1C[C@H]2CC[C@@H](C1)N2CCCC1(c2ccccc2)CCN(C(=O)c2ccccc2)CC1`: the IC50 is 1260 nM.
The compound `O=C1NCN(c2ccccc2)C12CCN(CCOC1(c3ccc(Cl)c(Cl)c3)CCN(S(=O)(=O)c3ccccc3)C1)CC2` (stereo not given) had an IC50 of 20400 nM.
The same measure, in the same setting: the value for `Cc1nc2ccccc2n1[C@H]1C[C@H]2CC[C@@H](C1)N2CCC1(c2ccc(Cl)c(Cl)c2)CCN(C(=O)OC(C)(C)C)C1` (stereo not given in full) was 776 nM; that for `O=C(c1ccccc1)N1CCCC(CCCN2CCC3(CC2)C(=O)NCN3c2ccccc2)(c2ccc(Cl)c(Cl)c2)C1` (stereo not given) was 447 nM.
Still for that read-out and setting: the same measure for `O=C(c1ccco1)N1CCC(OCCN2CCC3(CC2)C(=O)NCN3c2ccccc2)(c2ccc(Cl)c(Cl)c2)C1` (stereo not given): 3980 nM; for `CC(C)(C)OC(=O)N1CCC(CCCN2CCC(n3c(=O)[nH]c4ccccc43)CC2)(c2ccccc2)CC1`: 3980 nM.
The same measure, in the same setting: the same measure for `O=C(c1ccco1)N1CCC(CCCN2CCC3(CC2)C(=O)NCN3c2ccccc2)(c2ccc(Cl)c(Cl)c2)C1` (stereo not given): 141 nM.
The compound `Cc1nc2ccccc2n1[C@H]1C[C@H]2CC[C@@H](C1)N2CCC1(c2ccc(Cl)c(Cl)c2)CCN(C(=O)OC(C)(C)C)CC1` gave an IC50 of 29.5 nM.
With `NC(=O)C1(Nc2ccccc2)CCN(CCCC2(c3ccc(Cl)c(Cl)c3)CCCN(C(=O)c3ccccc3)C2)CC1` (stereo not given), the IC50 is > 31600 nM.
Turning to `CC(C)(C)OC(=O)N1CCC(CCN2CCC3(CC2)C(=O)NCN3c2ccccc2)(c2ccccc2)CC1`, the IC50 is 4570 nM.
Still for that read-out and setting: the value for `Cc1nc2ccccc2n1[C@H]1CC2CC[C@H](C1)N2CCC1(c2ccccc2)CCN(C(=O)C2CCCC2)CC1` (single isomer, unassigned) was 20 nM.
As to `Cc1nc2ccccc2n1[C@@H]1C[C@H]2CC[C@@H](C1)N2CCCC1(c2ccc(Cl)c(Cl)c2)CCN(C(=O)OC(C)(C)C)CC1`, the IC50 was 20000 nM.
The compound `CC(C)(C)OC(=O)N1CCC(CCCN2CCC(n3c(=O)[nH]c4ccccc43)CC2)(c2ccc(Cl)c(Cl)c2)CC1` had an IC50 of 7940 nM.
Compound `Cc1nc2ccccc2n1[C@H]1C[C@H]2CC[C@@H](C1)N2CCC1(c2ccc(Cl)c(Cl)c2)CCN(C(=O)c2ccccc2)CC1` had an IC50 of 15.8 nM.
As to `Cc1nc2ccccc2n1[C@@H]1C[C@H]2CC[C@@H](C1)N2CCC1(c2ccccc2)CCN(C(=O)OC(C)(C)C)CC1`, the IC50 was 63.1 nM.
Compound `Cc1nc2ccccc2n1[C@H]1C[C@H]2CC[C@@H](C1)N2CCC1(c2cccc(Cl)c2)CCN(C(=O)c2ccccc2)CC1` gave an IC50 of 5.25 nM.
`O=C1CC(CCN2CCC3(CC2)C(=O)NCN3c2ccccc2)(c2ccc(Cl)c(Cl)c2)CN1Cc1ccccc1` (stereo not given): the concentration for half-maximal inhibition (IC50) was 9330 nM.
The same measure, in the same setting: the value for `Cc1nc2ccccc2n1[C@H]1C[C@H]2CC[C@@H](C1)N2CCC1(c2cccc(Cl)c2)CCN(C(=O)OC(C)(C)C)CC1` was 5.01 nM.
Compound `O=C1NCN(c2ccccc2)C12CCN(CCCC1(c3ccc(Cl)c(Cl)c3)CN(S(=O)(=O)c3ccccc3)C1)CC2` showed an IC50 of 9120 nM.
`O=C1CC(CCCN2CCC3(CC2)C(=O)NCN3c2ccccc2)(c2ccc(Cl)c(Cl)c2)CN1Cc1ccccc1` (stereo not given) showed an IC50 of 1020 nM. Compared with the last compound, the IC50 is about 8.9-fold lower.

The next data set concerns Human immunodeficiency virus 1. The data set is described as follows: Antiviral activity against HIV1 Ba-L in human HOS cells by MTS assay. Conditions: Human immunodeficiency virus 1, Ba-L. The data set is classed as functional, organism-based.
In turn, `Cc1nc2ccccc2n1[C@H]1C[C@H]2CC[C@@H](C1)N2CCC1(c2ccc(Cl)c(Cl)c2)CCN(C(=O)C(C)(C)C)CC1` gave an IC50 of 33.9 nM. That is a double-digit nanomolar value.
In the case of `Cc1nc2ccccc2n1[C@H]1C[C@H]2CC[C@@H](C1)N2CCC1(c2cccc(Cl)c2)CCN(C(=O)C(C)(C)C)CC1`, inhibition was half-maximal at 14.5 nM (IC50).
Compound `Cc1nc2ccccc2n1[C@@H]1C[C@H]2CC[C@@H](C1)N2CCC1(c2ccccc2)CCN(C(=O)OC(C)(C)C)CC1` gave an IC50 of 1260 nM. This IC50 lies about 87-fold higher than the previous one.

Another data set concerns Human immunodeficiency virus 1. Kind of data set: Antiviral activity against HIV1 Ba-L in human PBL cells by MTS assay. The data set is classed as functional, organism-based. Conditions: Human immunodeficiency virus 1, Ba-L.
In turn, `Cc1nc2ccccc2n1[C@H]1C[C@H]2CC[C@@H](C1)N2CCC1(c2cccc(Cl)c2)CCN(C(=O)C(C)(C)C)CC1` had an IC50 of 1.91 nM.

System in a further data set: not listed separately
The data set is described as follows: Bioavailability in rat at 1 mg/kg, po. Conditions: in vivo.
`Cc1nc2ccccc2n1[C@H]1C[C@H]2CC[C@@H](C1)N2CCC1(c2cccc(Cl)c2)CCN(C(=O)C(C)(C)C)CC1` yielded a bioavailability of 26%.

The species entered for the next data set is Rattus norvegicus.
Test: not given
Details: not given
In turn, `Cc1nc2ccccc2n1[C@H]1C[C@H]2CC[C@@H](C1)N2CCC1(c2cccc(Cl)c2)CCN(C(=O)C(C)(C)C)CC1` displayed an LBF of 38%.

System in the next data set: not listed separately
The data set is described as follows: in vivo. Conditions: rat.
As to `Cc1nc2ccccc2n1[C@H]1C[C@H]2CC[C@@H](C1)N2CCC1(c2cccc(Cl)c2)CCN(C(=O)C(C)(C)C)CC1`, the clearance is 21 mL/min/kg.
